# Measurements taken from US20250049791A1, “Synthesis of MEK7 Inhibitors and methods of Use Thereof” (Northwestern University, priority 2023, published 2025).
# Like-named read-outs stand apart in the source and are kept apart here.
# Target: T1, recombinant active full-length human MEK7 (Homo sapiens, UniProt O14733)
# T1 construct: recombinant active full-length human MEK7 (Carna Biosciences); purchased Carna Biosciences
# T1 sequence (O14733 1-419): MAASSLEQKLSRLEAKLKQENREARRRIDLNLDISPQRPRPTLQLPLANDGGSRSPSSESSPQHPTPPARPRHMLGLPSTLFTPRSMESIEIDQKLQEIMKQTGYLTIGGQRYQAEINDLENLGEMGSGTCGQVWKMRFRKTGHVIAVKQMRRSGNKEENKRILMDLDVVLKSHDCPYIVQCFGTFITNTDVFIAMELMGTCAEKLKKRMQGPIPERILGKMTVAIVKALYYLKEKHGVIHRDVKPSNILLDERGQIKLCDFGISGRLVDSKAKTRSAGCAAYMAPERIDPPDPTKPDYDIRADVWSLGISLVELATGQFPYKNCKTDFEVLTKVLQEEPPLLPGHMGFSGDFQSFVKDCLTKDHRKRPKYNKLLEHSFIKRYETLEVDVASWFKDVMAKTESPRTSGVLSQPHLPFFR
# Assay: ADP-Glo kinase activity assay, MEK7 with JNK1 substrate
# Assay type: biochemical
# Conditions: for in vitro activity against MAP2K7, in words: ADP-Glo assay, comparison within the series
# Protocol: Procedure for a 5 μL Kinase reaction using the ADP-Glo Kinase Assay Kit from Promega. Staurosporine was used as the positive control, and DMSO (vehicle) was employed as the negative control. Activity of recombinant active full-length human MEK7 (Carna Biosciences) was measured with recombinant full-length human substrate JNK1 (MAPK8). Using a Mantis, a mixture of MEK7 and JNK1 was dispensed into a 384-well low volume white Proxiplate. For each well, 4 ng of MEK7 and 600 ng of JNK1 in kinase buffer (CST) were used, accounting for 1 μL of this mixture per well. Inhibitor was prepared in a DMSO solution (40 mM). A dose-response dilution was performed in a 384-well Echo transfer plate. Using an Echo Access, 10 nL of each solution was dispensed into the same 384-well low volume white Proxiplate as above. This mixture was allowed to incubate for 30 minutes at room temperature. Using a Mantis, 1 uL of an 8 μM ATP solution was added to each well, and the plate was allowed to incubate for another 1 hour at room temperature. Using the Mantis again, 4 μL of ADP Glo Reagent was dispensed into each well, and the plate was allowed to incubate for 45 min at room temperature. Finally, 9 μL of Kinase Detection Reagent was added manually to each well, and the plate was allowed to incubate for 45 minutes at room temperature. Luminescence was read on a Synergy Neo2 Plate Reader with filter cubes 3 and 114. Integration time was set to 0.20 seconds, gain set to 160, and read height set at 6 mm. All experiments were performed in triplicate on the plate, and at least in one separate technical duplicate was performed.
# MEK4 selectivity was performed in the same manner with activated MEK4 (Carna Biosciences). Here, p-38α was employed as the kinase substrate in lieu of JNK1 due to the availability of reagents. […] To probe the ATP-competitive nature of 25, this compound was subjected to a similar assay forgoing the 30 minute incubation time described above (STAR Protocols 2021, 2, 100717). The results are tabulated below in compound characterization. Potency determined by duplicate of triplicates corresponded to a IC50 value, which is in line with the ratio difference observed among other covalent inhibitors (for examples, see Cell Chem. Biol. 2020, 27, 1285).
# [1] = 30 min preincubation, overall value of two experiments, read-out: MEK7 IC50
# [2] = MEK7 IC50, first experiment (IC50±SEM, n=3), 30 min preincubation, first value in brackets
# [3] = MEK7 IC50, second experiment (IC50±SEM, n=3), 30 min preincubation, second value in brackets
# [4] = 30 min preincubation, first value in brackets
Structure (SMILES),IC50 [1] [nM],"in vitro activity against MAP2K7, in words",IC50 [2] [nM],IC50 [3] [nM],"MEK7 IC50, first experiment (IC50±SEM, n=3) [4] [nM]","IC50 (30 min preincubation, read-out: MEK7 IC50) [nM]",IC50 [4] [nM],"IC50 (read-out: MEK7 IC50, second experiment (IC50±SEM, n=3), 30 min preincubation, second value in brackets) [nM]"
"CNc1cc(Oc2ccc(NC(=O)CCl)cc2)ncn1 [Compound 6, 2-chloro-N-(4-((6-(methylamino)pyrimidin-4-yl)oxy)phenyl)acetamide]",1800,less active than compound 8,1500 ± 210,2100 ± 1100,–,–,–,–
"CNc1cc(Oc2cccc(NC(=O)CF)c2)ncn1 [Compound 12, 2-fluoro-N-(3-((6-(methylamino)pyrimidin-4-yl)oxy)phenyl)acetamide]",7800,attenuated activity,–,–,–,–,7700 ± 20000,7800 ± 5000
"O=C(CCl)Nc1cccc(Oc2cc(N3CCOCC3)ncn2)c1 [Compound 14, 2-chloro-N-(3-((6-morpholinopyrimidin-4-yl)oxy)phenyl)acetamide]",–,–,–,–,1300 ± 3400,–,–,–
"CC=CC(=O)Nc1cccc(Oc2cc(NC)ncn2)c1 (mixture of isomers) [Compound 10, (E/Z)—N-(3-((6-(methylamino)pyrimidin-4-yl)oxy)phenyl) but-2-enamide]",> 80000,less potent,–,–,–,–,–,–
"C=CC(=O)Nc1ccc(Oc2cc(NC)ncn2)cc1 [Compound 7, N-(4-((6-(methylamino)pyrimidin-4-yl)oxy)phenyl) acrylamide]",8800,less active than compound 8,7700 ± 1300,9900 ± 1200,–,60,–,–
"CNc1cc(Oc2cccc(NC(=O)COC)c2)ncn1 [Compound 13, 2-methoxy-N-(3-((6-(methylamino)pyrimidin-4-yl)oxy)phenyl)acetamide]",–,attenuated activity,–,–,–,–,–,–
"O=C(CCl)Nc1cccc(Oc2cc(NCCc3ccc(F)cc3)ncn2)c1 [Compound 20, 2-chloro-N-(3-((6-((4-fluorophenethyl)amino)pyrimidin-4-yl)oxy)phenyl)acetamide]",1200,–,710 ± 400,1600 ± 1800,–,–,–,–
"O=C(CCl)Nc1cccc(Oc2cc(NCCc3ccc(Cl)cc3)ncn2)c1 [Compound 19, 2-chloro-N-(3-((6-((4-chlorophenethyl)amino)pyrimidin-4-yl)oxy)phenyl)acetamide]",66,greatest potency,53,78 ± 91,–,–,–,–
"COc1ccc(CCNc2cc(Oc3cccc(NC(=O)CCl)c3)ncn2)cc1OC [Compound 22, 2-chloro-N-(3-((6-((3,4-dimethoxyphenethyl)amino)pyrimidin-4-yl)oxy)phenyl)acetamide]",1700,–,1900 ± 550,1400 ± 970,–,–,–,–
"O=C(CCl)Nc1cccc(Oc2cc(NC3CCCC3)ncn2)c1 [Compound 16, 2-chloro-N-(3-((6-(cyclopentylamino)pyrimidin-4-yl)oxy)phenyl)acetamide]",270,–,350 ± 150,190 ± 190,–,–,–,–
"COc1ccc(CCNc2cc(Oc3cccc(NC(=O)CCl)c3)ncn2)cc1 [Compound 21, 2-chloro-N-(3-((6-((4-methoxyphenethyl)amino)pyrimidin-4-yl)oxy)phenyl)acetamide]",930,–,1200 ± 330,660 ± 310,–,–,–,–
O=C(CCl)Nc1cccc(Oc2cc(NCCc3ccccc3)ncn2)c1 [Compound 18],1200,–,730 ± 220,1700,–,–,–,–
"O=C(CCl)Nc1cccc(Oc2cc(NCCc3c[nH]c4ccccc34)ncn2)c1 [Compound 15, N-(3-((6-((2-(1H-indol-3-yl)ethyl)amino)pyrimidin-4-yl)oxy)phenyl)-2-chloroacetamide]",260,greatest potency,300 ± 92,210 ± 180,–,–,–,–
"CNc1cc(Oc2cccc(NC(=O)C(C)(C)CCl)c2)ncn1 [Compound 11, 3-chloro-2,2-dimethyl-N-(3-((6-(methylamino)pyrimidin-4-yl)oxy)phenyl) propenamide]",–,less potent,–,–,–,–,–,–

# The next lines start with results.
IC50 [1] [nM],"in vitro activity against MAP2K7, in words",IC50 [2] [nM],IC50 [3] [nM],"MEK7 IC50, first experiment (IC50±SEM, n=3) [4] [nM]","IC50 (30 min preincubation, read-out: MEK7 IC50) [nM]",Structure (SMILES),IC50 [4] [nM],"IC50 (read-out: MEK7 IC50, second experiment (IC50±SEM, n=3), 30 min preincubation, second value in brackets) [nM]"
110,ten-fold attenuation,140 ± 87,87 ± 42,–,–,"CN(Cc1ccccc1)c1cc(Oc2cccc(NC(=O)CCl)c2)ncn1 [Compound 24, N-(3-((6-(benzyl(methyl)amino)pyrimidin-4-yl)oxy)phenyl)-2-chloroacetamide]",–,–
410,–,200 ± 410,640 ± 270,–,–,"O=C(CCl)Nc1cccc(Oc2cc(NCc3ccc(C(F)(F)F)cc3)ncn2)c1 [Compound 37, 2-chloro-N-(3-((6-((4-(trifluoromethyl)benzyl)amino)pyrimidin-4-yl)oxy)phenyl)acetamide]",–,–
74,–,110,–,–,–,"O=C(CCl)Nc1cccc(Oc2cc(NCc3cc(F)cc(F)c3)ncn2)c1 [Compound 26, 2-chloro-N-(3-((6-((3,5-difluorobenzyl)amino)pyrimidin-4-yl)oxy)phenyl)acetamide]",–,–
1100,–,1400 ± 810,830 ± 680,–,–,"O=C(CCl)Nc1cccc(Oc2cc(NCCc3ccc4c(c3)OCO4)ncn2)c1 [Compound 23, N-(3-((6-((2-(benzo[d][1,3]dioxol-5-yl)ethyl)amino)pyrimidin-4-yl)oxy)phenyl)-2-chloroacetamide]",–,–
110,–,880 ± 29,140 ± 44,–,–,"O=C(CCl)Nc1cccc(Oc2cc(NCc3c(F)ccc(F)c3F)ncn2)c1 [Compound 28, 2-chloro-N-(3-((6-((2,3,6-trifluorobenzyl)amino)pyrimidin-4-yl)oxy)phenyl)acetamide]",–,–
260,–,390 ± 730,120,–,–,"COc1ccc(CNc2cc(Oc3cccc(NC(=O)CCl)c3)ncn2)cc1OC [Compound 35, 2-chloro-N-(3-((6-((3,4-dimethoxybenzyl)amino)pyrimidin-4-yl)oxy)phenyl)acetamide]",–,–
3000,–,4200 ± 2500,1800 ± 1200,–,–,"O=C(CCl)Nc1cccc(Oc2cc(NCc3ccc(F)c(C(F)(F)F)c3)ncn2)c1 [Compound 31, 2-chloro-N-(3-((6-((4-fluoro-3-(trifluoromethyl)benzyl)amino)pyrimidin-4-yl)oxy)phenyl)acetamide]",–,–
360,–,420 ± 320,300 ± 150,–,–,"Cc1ccc(CNc2cc(Oc3cccc(NC(=O)CCl)c3)ncn2)cc1 [Compound 36, 2-chloro-N-(3-((6-((4-methylbenzyl)amino)pyrimidin-4-yl)oxy)phenyl)acetamide]",–,–
800,towards the micromolar range,590 ± 150,1000 ± 220,–,–,"COc1ccccc1CNc1cc(Oc2cccc(NC(=O)CCl)c2)ncn1 [Compound 32, 2-chloro-N-(3-((6-((2-methoxybenzyl)amino)pyrimidin-4-yl)oxy)phenyl)acetamide]",–,–
360,–,140,580 ± 200,–,–,"O=C(CCl)Nc1cccc(Oc2cc(NCc3ccc(F)cc3F)ncn2)c1 [Compound 27, 2-chloro-N-(3-((6-((2,4-difluorobenzyl)amino)pyrimidin-4-yl)oxy)phenyl)acetamide]",–,–
–,–,4000 ± 4400,8500 ± 9800,–,–,"O=C(CCl)Nc1cccc(Oc2cc(NCc3cc(C(F)(F)F)cc(C(F)(F)F)c3)ncn2)c1 [Compound 33, N-(3-((6-((3,5-bis(trifluoromethyl)benzyl)amino)pyrimidin-4-yl)oxy)phenyl)-2-chloroacetamide]",–,–
1200,towards the micromolar range,1100 ± 480,1300 ± 550,–,–,"O=C(CCl)Nc1cccc(Oc2cc(NCc3ccccc3C(F)(F)F)ncn2)c1 [Compound 30, 2-chloro-N-(3-((6-((2-(trifluoromethyl)benzyl)amino)pyrimidin-4-yl)oxy)phenyl)acetamide]",–,–
